Source: patent US11162077B2, “Apicidin-containing composition for inducing differentiation of mesenchymal stem cells into cardiac-committed cells” (CHONNAM NATIONAL UNIVERSITY HOSPITAL, priority 2015, dated 2021)

Tested on: human bone marrow-derived MSCs
Test: Real-time PCR of cardiac-specific marker genes after MSCs are treated with HDAC inhibitors
Assay type: cell-based
Details: 24 hours, TSA 0.5 μM, VPA 3 mM, AC 1 and 3 μM, vs vehicle, FIG. 1
Experimental: First, MSCs prepared in Example 1 were cultured for one day in a 6-well culture plate containing HIGH glucose/DMEM (4 mM L-glutamine, 4500 mg/L glucose, sodium pyruvate, 10% FBS, 100 U/ml penicillin, 100 μg/ml streptomycin), and then treated with TSA (0.5 μM), VPA (3 mM), and AC (1 and 3 μM) for 24 hours.
Afterward, the cell culture medium was removed from each sample, washed with PBS once, and homogenized with TRIzol for 10 minutes at room temperature, followed by centrifugation after the addition of chloroform. A supernatant obtained by centrifugation was harvested to purify total RNA, and cDNA was synthesized using a reverse transcriptase (MMLV) to be used as a template, followed by real-time PCR performed using the QuantiTect SYBR Green PCR kit. Accordingly, expression levels of the cardiac-specific marker genes (GATA4, Nkx2.5 and cTnI) were confirmed.

SMILES | mRNA expression of GATA4 | mRNA expression of Nkx2.5 | mRNA expression of cTnI
CC(/C=C/C(=O)NO)=C\[C@@H](C)C(=O)c1ccc(N(C)C)cc1 [TSA, trichostatin A] | no specific effect | no specific effect | had significance
CCCC(CCC)C(=O)O [VPA, valproic acid] | promoted |  | promoted
